Measured values: the supplement of paper PMC9663587

Tests used:
ABT-737 = compound: CN(C)CC[C@H](CSc1ccccc1)Nc1ccc(S(=O)(=O)NC(=O)c2ccc(N3CCN(Cc4ccccc4-c4ccc(Cl)cc4)CC3)cc2)cc1[N+](=O)[O-] [ABT-737]
Saracatinib/AZD0530 = compound: CN1CCN(CCOc2cc(OC3CCOCC3)c3c(Nc4c(Cl)ccc5c4OCO5)ncnc3c2)CC1 [Saracatinib/AZD0530]
Flavopiridol [1] = compound: T1, CN1CC[C@H](c2c(O)cc(O)c3c(=O)cc(-c4ccccc4Cl)oc23)[C@H](O)C1 [Flavopiridol]
[2] = compound: CO[C@@H](C)Cn1c(=O)n(C)c2cnc3ccc(-c4cncc(C(C)(C)O)c4)cc3c21
Taselisib/GDC0032 = compound: Cc1nc(-c2cn3c(n2)-c2ccc(-c4cnn(C(C)(C)C(N)=O)c4)cc2OCC3)n(C(C)C)n1 [Taselisib/GDC0032]
YKL-5-124 = compound: C=CC(=O)Nc1ccc(C(=O)Nc2[nH]nc3c2CN(C(=O)N[C@H](CN(C)C)c2ccccc2)C3(C)C)cc1 [YKL-5-124]; test: GR value, 72 h; higher = faster growth (1 = untreated, <0 = killing);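 further: breast cancer and non-malignant breast epithelial lines, nine half-log doses, viable cells counted by Hoechst and LIVE/DEAD dye imaging versus time-zero plates and DMSO controls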
BSJ-03-123 = compound: CC(=O)c1c(C)c2cnc(Nc3ccc(N4CCN(CCOCCOCCOCCNC(=O)COc5cccc6c5C(=O)N(C5CCC(=O)NC5=O)C6=O)CC4)cn3)nc2n(C2CCCC2)c1=O [BSJ-03-123]; test: as above
[3] = compound: CC(=O)c1c(C)c2cnc(Nc3ccc(N4CCNCC4)cn3)nc2n(C2CCCC2)c1=O; test: as above
[4] = compound: CCN1CCN(Cc2ccc(Nc3ncc(F)c(-c4cc(F)c5nc(C)n(C(C)C)c5c4)n3)nc2)CC1; test: as above
Neratinib/HKI272 = compound: CCOc1cc2ncc(C#N)c(Nc3ccc(OCc4ccccn4)c(Cl)c3)c2cc1NC(=O)/C=C/CN(C)C [Neratinib/HKI272]; test: as above
[5] = compound: CCc1cnn2c(NCc3ccc[n+]([O-])c3)cc(N3CCCC[C@H]3CCO)nc12; test: as above
LEE011/Ribociclib = compound: CN(C)C(=O)c1cc2cnc(Nc3ccc(N4CCNCC4)cn3)nc2n1C1CCCC1 [LEE011/Ribociclib]; test: as above
THZ531 = compound: CN(C)C/C=C/C(=O)Nc1ccc(C(=O)N2CCC[C@@H](Nc3ncc(Cl)c(-c4c[nH]c5ccccc45)n3)C2)cc1 [THZ531]; test: as above
THZ1 = compound: CN(C)C/C=C/C(=O)Nc1ccc(C(=O)Nc2cccc(Nc3ncc(Cl)c(-c4c[nH]c5ccccc45)n3)c2)cc1 [THZ1]; test: as above
Flavopiridol [6] = compound: T1, Flavopiridol; test: as above
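Wherever GR50, 72 h is given: breast cancer and non-malignant breast epithelial cell lines, Deep Dye Drop or Dye Drop imaging, nine half-log doses, GR normalized to time-zero plates and DMSO-only controls.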

MDAMB330
GR50, 72 h (ABT-737): 2.07 µM | GR50, 72 h (Saracatinib/AZD0530): 1.2 µM | GR50, 72 h (Flavopiridol [1]): 0.232 µM | GR50, 72 h [2]: < 0.001 µM | GR50, 72 h (Taselisib/GDC0032): 0.00814 µM | GR value (YKL-5-124; 0.001 µM): 0.265 GR | GR value (YKL-5-124; 0.003162 µM): 0.245 GR | GR value (YKL-5-124; 0.01 µM): 0.149 GR | GR value (YKL-5-124; 0.03162 µM): 0.177 GR | GR value (YKL-5-124; 0.1 µM): 0.133 GR | GR value (YKL-5-124; 0.3162 µM): -0.0197 GR | GR value (YKL-5-124; 1 µM): 0.0836 GR | GR value (YKL-5-124; 3.162 µM): 0.0626 GR | GR value (YKL-5-124; 10 µM): -0.732 GR | GR value (BSJ-03-123; 0.001 µM): 0.928 GR | GR value (BSJ-03-123; 0.003162 µM): 0.827 GR | GR value (BSJ-03-123; 0.01 µM): 0.847 GR | GR value (BSJ-03-123; 0.03162 µM): 0.727 GR | GR value (BSJ-03-123; 0.1 µM): 0.637 GR | GR value (BSJ-03-123; 0.3162 µM): 0.403 GR | GR value (BSJ-03-123; 1 µM): 0.337 GR | GR value (BSJ-03-123; 3.162 µM): 0.277 GR | GR value (BSJ-03-123; 10 µM): -0.101 GR | GR value ([3]; 0.0003162 µM): 1.06 GR | GR value ([3]; 0.001 µM): 0.943 GR | GR value ([3]; 0.003162 µM): 0.931 GR | GR value ([3]; 0.01 µM): 0.747 GR | GR value ([3]; 0.03162 µM): 0.376 GR | GR value ([3]; 0.1 µM): 0.224 GR | GR value ([3]; 0.3162 µM): 0.17 GR | GR value ([3]; 1 µM): 0.228 GR | GR value ([3]; 3.162 µM): 0.213 GR | GR value ([4]; 0.001 µM): 0.797 GR | GR value ([4]; 0.003162 µM): 0.615 GR | GR value ([4]; 0.01 µM): 0.306 GR | GR value ([4]; 0.03162 µM): 0.178 GR | GR value ([4]; 0.1 µM): 0.197 GR | GR value ([4]; 0.3162 µM): 0.241 GR | GR value ([4]; 1 µM): 0.202 GR | GR value ([4]; 3.162 µM): 0.199 GR | GR value ([4]; 10 µM): -0.0587 GR | GR value (Neratinib/HKI272; 0.0003162 µM): 0.967 GR | GR value (Neratinib/HKI272; 0.001 µM): 0.831 GR | GR value (Neratinib/HKI272; 0.003162 µM): 0.218 GR | GR value (Neratinib/HKI272; 0.01 µM): -0.306 GR | GR value (Neratinib/HKI272; 0.03162 µM): -0.546 GR | GR value (Neratinib/HKI272; 0.1 µM): -0.592 GR | GR value (Neratinib/HKI272; 0.3162 µM): -0.599 GR | GR value (Neratinib/HKI272; 1 µM): -0.656 GR | GR value (Neratinib/HKI272; 3.162 µM): -0.62 GR | GR value ([5]; 0.0001 µM): 1.02 GR | GR value ([5]; 0.0003162 µM): 1.09 GR | GR value ([5]; 0.001 µM): 1.09 GR | GR value ([5]; 0.003162 µM): 1.08 GR | GR value ([5]; 0.01 µM): 1.02 GR | GR value ([5]; 0.03162 µM): -0.513 GR | GR value (LEE011/Ribociclib; 0.001 µM): 0.451 GR | GR value (LEE011/Ribociclib; 0.003162 µM): 0.229 GR | GR value (LEE011/Ribociclib; 0.01 µM): 0.361 GR | GR value (LEE011/Ribociclib; 0.03162 µM): 0.14 GR | GR value (LEE011/Ribociclib; 0.1 µM): 0.106 GR | GR value (LEE011/Ribociclib; 0.3162 µM): -0.116 GR | GR value (LEE011/Ribociclib; 1 µM): 0.15 GR | GR value (LEE011/Ribociclib; 3.162 µM): 0.292 GR | GR value (LEE011/Ribociclib; 10 µM): 0.293 GR | GR value (THZ531; 0.0001 µM): 1.12 GR | GR value (THZ531; 0.0003162 µM): 0.83 GR | GR value (THZ531; 0.001 µM): 0.891 GR | GR value (THZ531; 0.003162 µM): 0.971 GR | GR value (THZ531; 0.01 µM): 0.805 GR | GR value (THZ531; 0.03162 µM): 0.214 GR | GR value (THZ531; 0.1 µM): -0.965 GR | GR value (THZ531; 0.3162 µM): -0.962 GR | GR value (THZ531; 1 µM): -0.968 GR | GR value (THZ1; 0.0001 µM): 1.19 GR | GR value (THZ1; 0.0003162 µM): 0.925 GR | GR value (THZ1; 0.001 µM): 1.1 GR | GR value (THZ1; 0.003162 µM): 0.734 GR | GR value (THZ1; 0.01 µM): 0.455 GR | GR value (THZ1; 0.03162 µM): -0.545 GR | GR value (THZ1; 0.1 µM): -0.924 GR | GR value (THZ1; 0.3162 µM): -0.898 GR | GR value (THZ1; 1 µM): -0.945 GR | GR value (Flavopiridol [6]; 0.0001 µM): 0.986 GR | GR value (Flavopiridol [6]; 0.0003162 µM): 0.935 GR | GR value (Flavopiridol [6]; 0.001 µM): 1.03 GR | GR value (Flavopiridol [6]; 0.003162 µM): 1.01 GR | GR value (Flavopiridol [6]; 0.01 µM): 0.911 GR | GR value (Flavopiridol [6]; 0.03162 µM): 0.85 GR | GR value (Flavopiridol [6]; 0.1 µM): 0.735 GR | GR value (Flavopiridol [6]; 0.3162 µM): 0.285 GR | GR value (Flavopiridol [6]; 1 µM): -0.892 GR
